Experimental data as given in paper PMC6204601, “In Vivo Selectivity and Localization of Reactive Oxygen Species (ROS) Induction by Osmium Anticancer Complexes That Circumvent Platinum Resistance” (Journal of Medicinal Chemistry, 2018).

Columns and labels:
[1] = system: HCT116p21-/- P21-knockout colorectal carcinoma cells; assay: Sulforhodamine B antiproliferative assay, HCT116p21-/-; assay type: cell-based, human; settings: 24 h drug exposure + 72 h recovery, SRB, read-out: Antiproliferative activity (IC50) HCT116p21-/- Colon
[2] = system: A549 lung carcinoma cells; assay: Sulforhodamine B antiproliferative assay, A549; assay type: cell-based, human; settings: 24 h drug exposure + 72 h recovery, SRB
[3] = system: A2780 ovarian carcinoma cells; assay: Sulforhodamine B antiproliferative assay, A2780; assay type: cell-based, human; settings: 24 h drug exposure + 72 h recovery in drug-free medium, SRB; read-out: Antiproliferative activity (IC50) A2780 Ovarian
[4] = system: Tubingen wild-type zebrafish embryos; assay: Zebrafish embryo toxicity (FET) test, TU-WT; assay type: in vivo; settings: 96 h exposure, read-out: LC50 (Danio rerio) TU-WT
[5] = system: HCT116p53-/- P53-knockout colorectal carcinoma cells; assay: Sulforhodamine B antiproliferative assay, HCT116p53-/-; assay type: cell-based, human; settings: 24 h drug exposure + 72 h recovery, SRB, read-out: Antiproliferative activity (IC50) HCT116p53-/- Colon
[6] = system: MRC5 human lung fibroblasts; assay: Sulforhodamine B antiproliferative assay, MRC5; assay type: cell-based; settings: 24 h drug exposure + 72 h recovery, SRB; non-cancer fibroblasts
Description: (§1) In vitro biological studies
(§2) Sulforhodamine B cell viability colorimetric assay.
(§3) by ICP-OES analysis for metal content).
(§4) 72 h recovery time (310 K).
(§5) using slowly-running tap water and air dried.
(§6) Data were processed using Microsoft Excel
IC50 values (concentrations at which […]
After this time, cells were […]

[7] = system: Singapore wild-type zebrafish embryos; assay type: in vivo, Danio rerio; settings: zebrafish embryos, 96 h exposure; read-out: LC50 (Danio rerio) SG-WT
Description: In vivo biological studies […]
wild-type zebrafish (SGWT) embryos (< 5 dpf). All animals were maintained in accordance with ASPA […]
maintained. Light cycle: 14 hours day, 10 hours night.
1 L breeding tank. Pairs were set up the previous evening. Males and females were separated by a divider. The divider was removed around 9am (dawn). Embryos were collected and placed into petri dishes with fresh egg water. […]

[8] = system: HOF human ovarian fibroblasts; assay: Sulforhodamine B antiproliferative assay, HOF; assay type: cell-based; settings: 24 h drug exposure + 72 h recovery, SRB; non-cancer fibroblasts
Description: as §1, §2, §3, §4, §5, §6

[9] = system: AB wild-type zebrafish embryos; assay type: in vivo; settings: 96 h exposure, read-out: LC50 (Danio rerio) AB-WT
[10] = system: HCT116 colorectal carcinoma cells; assay: Sulforhodamine B antiproliferative assay, HCT116; assay type: cell-based, human; settings: 24 h drug exposure + 72 h recovery, SRB; read-out: Antiproliferative activity (IC50) HCT116 Colon
[11] = system: HCT116Ox oxaliplatin-resistant colorectal carcinoma cells; assay: Sulforhodamine B antiproliferative assay, HCT116Ox; assay type: cell-based, human; settings: 24 h drug exposure + 72 h recovery, SRB, read-out: Antiproliferative activity (IC50) HCT116Ox Colon
[12] = system: A2780Cis cisplatin-resistant ovarian carcinoma cells; assay: Sulforhodamine B antiproliferative assay, A2780Cis; assay type: cell-based, human; settings: 24 h drug exposure + 72 h recovery, SRB
[13] = system: HOF human ovarian fibroblasts; assay: ROS/superoxide detection by flow cytometry, HOF; settings: 24 h, 1.0 × IC50 (pyocyanin positive control 0.1 mM)
Description: (§7) Reactive oxygen species (ROS) determination using flow cytometry. The generation of ROS and
(§8) superoxide in A2780 ovarian cancer cells was evaluated using the ROS/Superoxide detection kit (Enzo
(§9) Life Sciences) following the manufacturer’s protocol.
(§10) cells per well, and incubated for 24 h (310 K). After this time, cells were exposed to equipotent
The pellets were re-suspended in 500
(§11) μL PBS and stained with green fluorescent reagent for total ROS reading in the FL1-green channel (2
(§12) μL) and orange fluorescent reagent for superoxide reading in the FL2-red channel (2 μL). Positive
(§13) control samples were treated with pyocyanin (5 μL, 30 min). Single stained positive control samples
(§14) were used for compensation purposes. Data were obtained using a Becton Dickson FACScan Flow
(§15) Cytometer and processed using FlowJo V10 for Windows.

A2780 cancer cells = assay: ROS/superoxide detection by flow cytometry, A2780; settings: A2780, 24 h, 1.0 × IC50 (pyocyanin positive control 0.1 mM)
Description: as §7, §8, §9, §10
The pellets were re-suspended in 500
as §11, §12, §13, §14, §15

`CS(=O)(=O)[N]1[Os][NH][C@H](c2ccccc2)[C@H]1c1ccccc1.Cc1ccc(C(C)C)cc1` [Complex 2, [Os(p-cymene)(Ms-DPEN)]] was tested, and the IC50 [1] was 71 ± 5 µM, the IC50 [2] was 31 ± 1 µM and the IC50 [3] was 30 ± 2 µM. For the same compound, the LC50 [4] was 2800 ± 500 nM, the IC50 [5] was 56 ± 6 µM and the IC50 [6] was 26 ± 0.4 µM. It also gave an LC50 [7] of 3500 ± 400 nM, an IC50 [8] of over 50 µM and an LC50 [9] of 2.8 ± 0.6 µM. The IC50 [10] was 67 ± 1 µM, the IC50 [11] was 56 ± 5 µM and the IC50 [12] was 39.4 ± 0.6 µM.
Compound `Cc1ccc(C(C)C)cc1.[NH-]C(c1ccccc1)C([N-]S(=O)(=O)c1ccc([N+](=O)[O-])cc1)c1ccccc1.[Os+2]` (stereo not drawn) [Complex 3, [Os(p-cymene)(Ns-DPEN)]] has an IC50 [1] of 63 ± 4 µM, an IC50 [2] of 27 ± 2 µM and an IC50 [3] of 19.9 ± 0.5 µM. The IC50 [5] was 53 ± 3 µM, the IC50 [6] was 21.9 ± 0.7 µM and the LC50 [7] was 1900 ± 300 nM. It also gave an IC50 [8] of over 50 µM, an LC50 [9] of 3.9 ± 0.3 µM and an IC50 [10] of 67 ± 1 µM. For the same compound, the IC50 [11] was 64 ± 5 µM and the IC50 [12] was 21.1 ± 0.3 µM.
`Cc1ccc(C(C)C)cc1.O=S(=O)(c1ccc(F)cc1)[N]1[Os][NH][C@H](c2ccccc2)[C@H]1c1ccccc1` [Complex 4, [Os(p-cymene)(Fb-DPEN)]] gave an IC50 [1] of 70 ± 3 µM, an IC50 [2] of 31.5 ± 0.4 µM and an IC50 [3] of 17 ± 1 µM. It also gave an LC50 [4] of 1500 ± 300 nM, an IC50 [5] of 39.4 ± 0.6 µM and an IC50 [6] of 35 ± 1 µM. The LC50 [7] was 700 ± 200 nM, the IC50 [8] was 48 ± 3 µM and the LC50 [9] was 3 ± 0.5 µM. The IC50 [10] was 49 ± 3 µM, the IC50 [11] was 54 ± 2 µM and the IC50 [12] was 15 ± 2 µM.
For `Cc1ccc(C(C)C)cc1.O=S(=O)(c1ccccc1)[N]1[Os][NH][C@H](c2ccccc2)[C@H]1c1ccccc1` [Complex 5, [Os(p-cymene)(Bs-DPEN)]], the IC50 [1] was 54.3 ± 0.9 µM, the IC50 [2] was 26.3 ± 0.5 µM and the IC50 [3] was 13.5 ± 0.9 µM. The LC50 [4] was 1500 ± 300 nM, the IC50 [5] was 48 ± 2 µM and the IC50 [6] was 31.3 ± 0.2 µM. The LC50 [7] was 800 ± 200 nM, the IC50 [8] was 19.9 ± 0.9 µM and the IC50 [10] was 49 ± 6 µM. The IC50 [11] was 52 ± 0.8 µM and the IC50 [12] was 21 ± 1 µM.
`Cc1ccc(S(=O)(=O)[N]2[Os][NH][C@H](c3ccccc3)[C@H]2c2ccccc2)cc1.c1ccc(-c2ccccc2)cc1` [Complex 7, [Os(biphenyl)(Ts-DPEN)]] was tested, and the IC50 [1] was 90 ± 1 µM, the IC50 [2] was 22.4 ± 0.7 µM and the IC50 [3] was 6.5 ± 0.3 µM. For the same compound, the LC50 [4] was 3300 ± 400 nM, the IC50 [5] was 40 ± 6 µM and the IC50 [6] was 15.1 ± 0.5 µM. The IC50 [8] was 44 ± 1 µM, the LC50 [9] was 3.5 ± 0.8 µM and the IC50 [10] was 26.1 ± 0.3 µM. For the same compound, the IC50 [11] was 46.2 ± 0.7 µM and the IC50 [12] was 25.9 ± 0.7 µM.
Work on `Cc1ccc(S(=O)(=O)[N]2[Os][NH][C@H](c3ccccc3)[C@H]2c2ccccc2)cc1.c1ccc(-c2cccc(-c3ccccc3)c2)cc1` [Complex 8, [Os(terphenyl)(Ts-DPEN)]] yielded an IC50 [2] of 25.5 ± 0.3 µM, an IC50 [3] of 4.4 ± 0.3 µM and an IC50 [6] of 9.7 ± 0.2 µM. The LC50 [7] was 700 ± 200 nM, the IC50 [8] was 24.3 ± 0.4 µM and the IC50 [10] was 41.2 ± 0.7 µM. The IC50 [12] was 10.4 ± 0.5 µM.
In the case of `Cn1c2cccc(=O)c-2nc2ccccc21` [Pyocyanin, pyocyanin, reference compound], the “% Population Q4 FL1-H- / FL2-H-” value [13] is reported as 1.2 ± 0.5%, the “% Population Q2 FL1-H+ / FL2-H+” value ([13]; ROS and superoxide) is reported as 90 ± 2% and the “% Population Q1 FL1-H- / FL2-H+” value ([13]; superoxide only) is reported as 8 ± 2%. For the same compound, the “% Population Q3 FL1-H+ / FL2-H-” value ([13]; total ROS only) was 1.2 ± 0.2%, the “% Population Q4 FL1-H- / FL2-H-” value (A2780 cancer cells) was 0.02 ± 0.01% and the “% Population Q2 FL1-H+ / FL2-H+” value (A2780 cancer cells; ROS and superoxide) was 99 ± 2%. The “% Population Q1 FL1-H- / FL2-H+” value (A2780 cancer cells; superoxide only) was 0.03 ± 0.02% and the “% Population Q3 FL1-H+ / FL2-H-” value (A2780 cancer cells; total ROS only) was 0.00 ± 0.01%.
With `N.N.O=C([O-])C1(C(=O)[O-])CCC1.[Pt+2]` [carboplatin, reference compound] the LC50 [4] was 7100 ± 700 nM, the LC50 [7] was 5700 ± 900 nM and the LC50 [9] was 10 ± 1 µM.
`N.N.[Cl][Pt][Cl]` [cisplatin, reference compound] was tested, and the IC50 [1] was 9.2 ± 0.5 µM, the IC50 [2] was 3.2 ± 0.1 µM and the IC50 [3] was 1.2 µM. The IC50 [5] was 36.7 µM, the IC50 [6] was 13.5 ± 0.9 µM and the IC50 [10] was 5.1 ± 0.3 µM. The IC50 [11] was 23.4 ± 0.4 µM and the IC50 [12] was 11.5 ± 0.2 µM.
For [Os(p-cymene)(SRB-DPEN)] [Complex 6], the IC50 [1] was 43 ± 3 µM, the IC50 [2] was 16.8 ± 0.2 µM and the IC50 [3] was 18 ± 3 µM. It also gave an IC50 [5] of 34 ± 3 µM, an IC50 [10] of 40.6 ± 0.1 µM and an IC50 [11] of 35 ± 1 µM. It also gave an IC50 [12] of 27.2 ± 0.4 µM.
